Reference: US20230363389A1, “MAMMAL REPELLENT” (SCENT SCIENCE INTERNATIONAL INC., priority 2020, published 2023)

How the values were obtained:
birds = conditions: reported, Non-Patent Literature 5; cited from earlier work
mice = conditions: reported, Non-Patent Literature 5; cited from earlier work
C57/BL6 male mice = assay: Freezing test: innate fear (freezing) behavior of mice exposed to odor gas; type: in vivo, mouse; conditions: for freezing behavior-inducing activity (Freezing time): 10 ppm gas, 20 min observation, n = 6
Source text: A 10 ppm gas was generated for 9 kinds of available odor molecules from those reported to have a repellent effect on birds by using a gas permeator (manufactured by GASTEC, PD-1B-2). Holes (4.5 cm and 12 cm high) were respectively drilled on opposite sides of a sealed test cage (17×17×18.5 cm), a tube for discharging the gas generated by the permeator was connected to the lower hole, the gas was introduced, and the higher hole allowed the air in the test cage to be released. After the air in the test cage was completely replaced by the odor gas, C57/BL6 male mice aged about 2 months to 6 months were put into the test cage (one mouse per cage), and the freezing behavior was analyzed by a freezing behavior automatic analyzer (manufactured by Actimetrics, Freeze Frame2) for 20 min. The time during which the mouse was motionless for 2 seconds or longer was measured as a freezing behavior, and the duration of freezing behavior within 20 minutes of observation time (Freezing time) was shown in %. Each experiment was performed with n = 6.
A constant concentration of the gas of the following various compounds was generated by a gas permeator (manufactured by GASTEC, PD-1B-2). When the concentration is not particularly indicated, an odor gas was generated at a concentration of 10 ppm. Holes (4.5 cm and 12 cm high) were respectively drilled on opposite sides of a sealed test cage (17×17×18.5 cm), a tube for discharging the gas generated by the permeator was connected to the lower hole, the gas was introduced, and the higher hole allowed the air in the test cage to be released. After the air in the test cage was completely replaced by the odor gas, C57/BL6 male mice aged about 2 months to 6 months were put into the test cage (one mouse per cage), and the freezing behavior was analyzed by a freezing behavior automatic analyzer (manufactured by Actimetrics, Freeze Frame2) for 20 min. The time during which the mouse was motionless for 2 seconds or longer was measured as a freezing behavior, and the duration of freezing behavior within 20 minutes of observation time (Freezing time) was shown in %. Each experiment was performed with n = 6. […]
A 10 ppm gas of thiophene and 2-acetylthiophene was generated using a gas permeator (manufactured by GASTEC, PD-1B-2). […] After the air in the test cage was completely replaced by the odor gas, C57/BL6 male mice aged about 2 months to 6 months were put into the test cage (one mouse per cage), and the freezing behavior was analyzed by a freezing behavior automatic analyzer (manufactured by Actimetrics, Freeze Frame2) for 20 min. The time during which the mouse was motionless for 2 seconds or longer was measured as a freezing behavior, and the duration of freezing behavior within 20 minutes of observation time (Freezing time) was shown in %. […]

Row | Structure (SMILES) | repellent activity in birds (birds) | activity to induce freezing behavior in mice (mice) | freezing behavior-inducing activity (Freezing time) (C57/BL6 male mice; Example 1, FIG. 1) | freezing behavior-inducing activity (Freezing time) (C57/BL6 male mice; Example 3, FIG. 3) | significant difference from no odor, student's t-test (C57/BL6 male mice; Example 3, freezing time versus no odor)
1 | Cc1csc(C)n1 [2,4-dimethyl-thiazole] | does not show repellent activity | has an activity to induce freezing behavior |  |  | 
2 | CC(=O)c1cccs1 [2-acetylthiophene] |  |  | induced a freezing behavior | very strong freezing behavior | 
3 | c1ccsc1 [thiophene] |  |  |  | very low | no significant difference
